Key:
[1] = tested on: lymphocytes labeled with anti-CD45 antibody conjugated with APC tandem; test: percentage of decoupling of APC tandem on immunolabeled lymphocytes by flow cytometry; format: cell-based, human
Method: The positivity threshold was determined in the APC channel at the time T0 and related to the time T30. The percentage of “decoupled” cells was expressed as the ratio of the total number of both APC- and APC tandem-positive cells to the total APC tandem-positive lymphocytes.

[2] = tested on: monocytes labeled with anti-CD45 antibody conjugated with APC tandem; test: percentage of decoupling of APC tandem on immunolabeled monocytes by flow cytometry; format: cell-based, human
Text: (§1) The terms “percentage of decoupling”, “% decoupling”, “% decoupling APC vs APC-Cy7”, “% decoupling APC vs APC-H7” are used in the preceding text and in the text which follows and in the accompanying figures to denote the ratio:
(§2) [Number of cells which, although having been labeled with an APC tandem, emit fluorescence into the APC channel (and not into the channel of the APC tandem used)]/[total number of cells which have been labeled with the APC tandem, regardless of the channel into which they emit],
(§3) this ratio being multiplied by 100.
(§4) For each immunolabeling experiment, the cells were mixed and subjected to flow cytometry analysis on a Becton Dickinson FACSCanto II apparatus. From 10,000 to 50,000 events were acquired per test. The singlet cells were selected by a commonly used cell sorting procedure: intersection of the three windows (P1, P2 and P3) of the biparametric histograms.
(§5) For each type of cells, the percentage of decoupling was calculated as previously described using the BD […] software.
(§6) The results are represented in FIGS. 25 and 26.

[3] = tested on: neutrophilic polynuclear cells labeled with anti-CD45 antibody conjugated with APC tandem; test: percentage of decoupling of APC tandem on immunolabeled neutrophilic polynuclear cells by flow cytometry; format: cell-based, human
Text: as §1, §2, §3, §4, §5, §6

[4] = decoupling / signal impairment of APC tandem attached to beads (no cells)
Text: For that, they analyzed the stability of the APC tandem fluorochromes attached to lymphocytes and compared it to the stability of these same APC tandems attached to beads. This comparison makes it possible to determine whether or not it is the APC tandem which is degraded, regardless of the context in which it is used, or if the APC tandem is only degraded in the presence of cells.
The beads used in these experiments were beads Compbeads® from Becton Dickinson.
The lymphocytes, like the beads, were labeled with anti-CD45 antibodies conjugated with the APC-Cy7 tandem fluorochrome or with the APC-H7 tandem fluorochrome.

monocytes = tested on: monocytes
Method: (§7) Aliquots of human peripheral blood (containing 500,000 leukocytes) were incubated in the lysis buffer and then washed three times with 1×PBS supplemented with 2.5% FBS. The cells (500,000) were then immuno-labeled with 5 μl of each of the desired antibodies conjugated either with the desired APC tandem or with APC alone in 100 μl of incubation buffer for 20 min at room temperature, and washed three times with the PBS/FBS solution and resuspended in 200 μl of PBS/FBS solution.
(§8) The dead cells were labeled for their exclusion during analysis of the data acquired by flow cytometry using the intercalating agent 7-aminoactinomycin-D (7-AAD) from SIGMA-ALDRICH.

[5] = tested on: neutrophilic polynuclear cells
Method: as §7, §8

lymphocytes = test: viability and morphology of lymphocytes; format: cell-based, human
cells = test: toxicity to cells at the concentrations used; format: cell-based
[6] = neutrophilic polynuclear cells, H2O2

OO [H2O2, hydrogen peroxide]
effect on percentage of decoupling ([1]; anti-CD45 APC-Cy7, 0.01 mM H2O2, 20 to 60 minutes): does not modify | effect on percentage of decoupling ([1]; anti-CD45 APC-Cy7, 0.1 mM H2O2, 20 to 60 minutes): increased | effect on decoupling compared with lymphocytes ([2]; H2O2): comparable role | effect on decoupling compared with lymphocytes [3, 6]: comparable role | decoupling of antibodies conjugated with APC-Cy7 attached to beads ([4]; beads, over time, H2O2): could induce the decoupling | effect on viability of the cells (monocytes; H2O2): without any effect on the viability | effect on viability of the cells [5, 6]: without any effect on the viability

[N-]=[N+]=[N-] [NaN3, sodium azide]
effect on cell viability (monocytes; NaN3): without affecting cell viability | effect on cell viability ([5]; neutrophilic polynuclear leukocytes, NaN3): without affecting cell viability

O=C1O[C@H]([C@@H](O)CO)C(O)=C1O [vitamin C, L-ascorbic acid]
effect on percentage of decoupling over time ([1]; anti-CD45 APC-Cy7, 1 mM vitamin C, room temperature, monitored 1 hour): strongly inhibits | effect on percentage of decoupling ([1]; vitamin C 0.1 mM): only a reduced effect | concentration at which a sufficient decrease of the percentage of decoupling appears [2]: 1 mM | concentration up to which the decrease of decoupling exists [2]: ≤ 10 mM | concentration at which a sufficient decrease of the percentage of decoupling is obtained ([3]; neutrophilic polynuclear cells): 0.25 mM | concentration up to which the decrease of decoupling exists ([3]; neutrophilic polynuclear cells): ≤ 10 mM | effect on percentage of decoupling over time ([3]; neutrophilic polynuclear leukocytes, anti-CD45 APC-Cy7, 1 mM vitamin C, room temperature, monitored 1 hour): strongly inhibits | effect on impairment of the APC tandem signal caused by H2O2 ([4]; beads Compbeads, H2O2 0 to 1 mM, 1 mM vitamin C): blocks the impairment of the signal | concentration above which morphology and viability are modified (lymphocytes): above 10 mM | concentration above which viability and morphology are modified (monocytes): > 10 mM | concentration above which cells begin to undergo a decrease in viability ([5]; neutrophilic polynuclear cells): Above 10 mM | concentration above which cells begin to undergo morphological impairment ([5]; neutrophilic polynuclear cells): Above 4 mM | toxicity to cells (cells): not toxic to cells

— US20090258385A1, “METHOD OF ANALYZING CELLS BY FLOW CYTOMETRY, USE OF AN ANTIOXIDANT AND/OR FREE RADICAL-SCAVENGING AGENT IN SUCH A METHOD AND INCUBATION BUFFER COMPRISING AN ANTIOXIDANT AND/OR FREE RADICAL-SCAVENGING AGENT” (Hopitaux de Paris, priority 2008, published 2009)
